# According to US6900019B1, “In-situ cell extraction and assay method” (Amersham Biosciences UK Limited, priority 1997, dated 2005):
# Several values for one entry are separate records, joined by “and”; a condition that tells them apart may be missing. Identical values can stand only once.
# Key:
# [1] = tested on: rabbit anti-cAMP sera (antigen:antibody binding); assay: Scintillation proximity radioimmunoassay for cAMP: standard curves with lysis reagents and sequestrants; details: for restoration of antigen:antibody binding by different sequestrants: 2.5% (w/v) sequestrant, standards in 1% DTAB; for [125I]cAMP bound to SPA beads, counts per minute: no sequestrant
# Experimental: All assays were carried out in microtitre plates compatible with a microtitre plate beta scintillation counter. Standards (50 μl; 0.2-12.8 pmol/well), antisera (50 μl; at 1:11000 dilution), tracer (50 ul; 10000-20000 cpm) are added to anti-rabbit coated SPA beads (50 μl; 20 mg/ml). Non-specific binding was determined in the absence of specific rabbit antisera. SPA anti-rabbit reagent is placed onto a magnetic stirrer to ensure a homogeneous suspension before pipetting. All wells contained a total volume of 200 μl. The plates were sealed and incubated at room temperature (15-30° C.) for 15-20 hours. The amount of [^125I]cAMP bound to the SPA fluomicrospheres was determined by counting in a microtitre plate beta scintillation counter for 2 minutes.
# Experiments were set up with:— • a) Working standards (4-256 pmol/ml; 0.2-12.8 pmol/well) were prepared in assay buffer (0.05M sodium acetate buffer containing 0.01% sodium azide) only (control) or assay buffer containing lysis reagent (e.g. DTAB, CPC or SDS; see experiment 1) at various concentrations. • b) Rabbit anti-cAMP sera prepared in assay buffer only (control) or assay buffer containing sequestrating agent at various concentrations depending on the experiment. • c) Radioactive tracer: adenosine 3′ 5′-cyclic phosphoric acid 2′-O-succinyl-3-[^125I] iodotyrosine methyl ester prepared in assay buffer only (control) or assay buffer containing sequestrating agent at various concentrations depending on the experiment. • d) Donkey anti-rabbit IgG coupled to scintillation proximity fluomicrospheres prepared in assay buffer only (control) or assay buffer containing sequestrating agent at various concentrations depending on the experiment. Experiment 1: Inhibition of Antigen and Antibody Binding by Several Lysis Reagents Method
# In these experiments, standard curves were prepared for cAMP using the SPA immunoassay technique, described above, where working standards of cAMP were prepared in several lysis reagents at 1% (w/v) or 2% (w/v) final concentration. The detergents investigated included dodecyl trimethyl ammonium bromide (DTAB; Sigma Chemical Co. D8638), benzethonium chloride (BZC; Aldrich; B470-8), cetyl pyridinium chloride (CPC; Sigma Chemical Co; C9002), sodium dodecyl sulphate (SDS, Sigma chemical Co; L4509) and N-dodecyl-N,N-dimethyl-3-ammonio-1-propanesulphonate (DDAPS; Sigma Chemical Co.; D4516).
# In these experiments, standard curves for cAMP were prepared using the SPA immunoassay technique described above, where working standards of cAMP were prepared in 1% (w/v), 1.5% (w/v) or 2% (w/v) lysis reagents (DTAB, SDS or CPC). The control consisted of no lysis reagent or cyclodextrin added. The effect including 2.5% (w/v) alpha-cyclodextrin (alpha-CD) (Sigma Chemical Co.; C4642) on antigen:antibody binding was investigated. Here, tracer, antisera and SPA beads were prepared in assay buffer containing 2.5% (w/v) alpha-CD. A second control tested the effect of 2.5% (w/v) alpha-CD on the standard curve without addition of lysis reagent.
# In this experiment, standard curves for cAMP were prepared using the SPA radioimmunoassay where working standards of cAMP were prepared in 1% (w/v) DTAB. The effect of including 1% (w/v), 2% (w/v), 2.5% (w/v) and 5% (w/v) alpha-cyclodextrin on antigen:antibody binding was investigated. Here, tracer, antisera and SPA beads were prepared in assay buffer containing alpha-CD at the above concentrations. The control consisted of no lysis or cyclodextrin added to the assay.
# In this experiment, standard curves for cAMP were prepared using the SPA immunoassay technique where working standards were prepared 1% (wt) lysis reagent (DTAB). The effect of including 2.5% (w/v) alpha-cyclodextrin (CD) 2.5% (w/v) beta-cyclodextrin (beta-CD) (Sigma is Chemical Co.; C4767) and 2.5% (w/v) gamma-cyclodextrin (gamma-CD) (Sigma Chemical Co.; 4892) on antigen:antibody binding was investigated. […]
# [2] = tested on: Chinese hamster ovary (CHO) cells; assay: "Total" cellular cAMP from forskolin-stimulated CHO cells; format: cell-based; details: 100 μM forskolin, 20 minutes
# Experimental: Chinese hamster ovary (CHO) cells were cultured in HAM's media containing 10% (v/v) foetal calf serum (FCS). For cAMP assays, cells were seeded into clear-bottomed 96-well tissue-culture plates with opaque walls (tissue-culture grade; see materials) in HAM's media, (see experiment 5) at 40 μl/well (between 10^4 and 10^6 cells/well). Cells were cultured overnight at 37° C. in a 95% air/5% CO2 atmosphere. The next day, sequestration and lysis buffers (2.5% alpha-cyclodextrin, 1% and 10% DTAB in assay buffer) were prepared. Antisera (at 1/11000 dilution), tracer (10000-20000 cpm) and SPA beads (20 mg/ml) were reconstituted with assay buffer containing 2.5% (w/v) alpha-cyclodextrin. […]
# DTAB (100 μl, 1% w/v in assay buffer) was added to the non-specific binding wells. […] Following incubation, the plate was transferred directly to a TopCount™ scintillation counter and radioactivity detected. Non-specific binding was determined in the absence of specific rabbit antisera. Cyclic AMP levels were determined using log/linear analysis with reference to the standard curve. […]
# Chinese hamster ovary cells were seeded at a density of 100,000 cells per well and cultured overnight to confluence in Viewplates as described under the methods section. […] The cell culture supernatant was not removed before the cell lysis step. cAMP levels were measured with the SPA radioimmunoassay procedure.
# [3] = 1% lysis reagent, 0.2 pmol cAMP/well
# [4] = 1% lysis reagent, 0.4 pmol cAMP/well
# [5] = 1% lysis reagent, 0.8 pmol cAMP/well
# [6] = 1% lysis reagent, 1.6 pmol cAMP/well
# [7] = 1% lysis reagent, 3.2 pmol cAMP/well
# [8] = 1% lysis reagent, 6.4 pmol cAMP/well
# [9] = 1% lysis reagent, 12.8 pmol cAMP/well
# [10] = 1% lysis reagent, NSB (no specific antisera)
# [11] = 1% lysis reagent, Zero standard
# [12] = 2% lysis reagent, 0.2 pmol cAMP/well
# [13] = 2% lysis reagent, 0.4 pmol cAMP/well
# [14] = 2% lysis reagent, 0.8 pmol cAMP/well
# [15] = 2% lysis reagent, 1.6 pmol cAMP/well
# [16] = 2% lysis reagent, 3.2 pmol cAMP/well
# [17] = 2% lysis reagent, 6.4 pmol cAMP/well
# [18] = 2% lysis reagent, 12.8 pmol cAMP/well
# [19] = 2% lysis reagent, NSB (no specific antisera)
# [20] = 2% lysis reagent, Zero standard
Structure (SMILES),restoration of antigen:antibody binding by different sequestrants [1],"[125I]cAMP bound to SPA beads, counts per minute [1, 3]","[125I]cAMP bound to SPA beads, counts per minute [1, 4]","[125I]cAMP bound to SPA beads, counts per minute [1, 5]","[125I]cAMP bound to SPA beads, counts per minute [1, 6]","[125I]cAMP bound to SPA beads, counts per minute [1, 7]","[125I]cAMP bound to SPA beads, counts per minute [1, 8]","[125I]cAMP bound to SPA beads, counts per minute [1, 9]","[125I]cAMP bound to SPA beads, counts per minute [1, 10]","[125I]cAMP bound to SPA beads, counts per minute [1, 11]","[125I]cAMP bound to SPA beads, counts per minute [1, 12]","[125I]cAMP bound to SPA beads, counts per minute [1, 13]","[125I]cAMP bound to SPA beads, counts per minute [1, 14]","[125I]cAMP bound to SPA beads, counts per minute [1, 15]","[125I]cAMP bound to SPA beads, counts per minute [1, 16]","[125I]cAMP bound to SPA beads, counts per minute [1, 17]","[125I]cAMP bound to SPA beads, counts per minute [1, 18]","[125I]cAMP bound to SPA beads, counts per minute [1, 19]","[125I]cAMP bound to SPA beads, counts per minute [1, 20]",other results
"OC[C@H]1O[C@@H]2O[C@H]3[C@H](O)[C@@H](O)[C@@H](O[C@H]4[C@H](O)[C@@H](O)[C@@H](O[C@H]5[C@H](O)[C@@H](O)[C@@H](O[C@H]6[C@H](O)[C@@H](O)[C@@H](O[C@H]7[C@H](O)[C@@H](O)[C@@H](O[C@H]8[C@H](O)[C@@H](O)[C@@H](O[C@H]9[C@H](O)[C@@H](O)[C@@H](O[C@H]1[C@H](O)[C@H]2O)O[C@@H]9CO)O[C@@H]8CO)O[C@@H]7CO)O[C@@H]6CO)O[C@@H]5CO)O[C@@H]4CO)O[C@@H]3CO [gamma cyclodextrin, gamma-cyclodextrin]",restored binding to an optimal degree,,,,,,,,,,,,,,,,,,,
"CCCCCCCCCCCC[N+](C)(C)CCCS(=O)(=O)[O-] [DDAPS, N-dodecyl-N,N-dimethyl-3-ammonio-1-propanesulphonate]",,969 cpm and 762 cpm,849 cpm and 719 cpm,725 cpm and 689 cpm,610 cpm and 559 cpm,425 cpm and 446 cpm,311 cpm and 326 cpm,204 cpm and 173 cpm,181 cpm and 137 cpm,1109 cpm and 906 cpm,416 cpm and 423 cpm,426 cpm and 370 cpm,429 cpm and 350 cpm,339 cpm and 290 cpm,303 cpm and 252 cpm,215 cpm and 194 cpm,109 cpm and 115 cpm,129 cpm and 130 cpm,579 cpm and 510 cpm,
OC[C@H]1O[C@@H]2O[C@H]3[C@H](O)[C@@H](O)[C@@H](O[C@H]4[C@H](O)[C@@H](O)[C@@H](O[C@H]5[C@H](O)[C@@H](O)[C@@H](O[C@H]6[C@H](O)[C@@H](O)[C@@H](O[C@H]7[C@H](O)[C@@H](O)[C@@H](O[C@H]8[C@H](O)[C@@H](O)[C@@H](O[C@H]1[C@H](O)[C@H]2O)O[C@@H]8CO)O[C@@H]7CO)O[C@@H]6CO)O[C@@H]5CO)O[C@@H]4CO)O[C@@H]3CO [beta-cyclodextrin],less effective,,,,,,,,,,,,,,,,,,,
"CC(C)(C)CC(C)(C)c1ccc(OCCOCC[N+](C)(C)Cc2ccccc2)cc1 [BZC, benzethonium chloride]",,644 cpm,501 cpm,473 cpm,426 cpm,261 cpm,16 cpm,6 cpm,111 cpm,951 cpm,308 cpm,338 cpm,222 cpm,156 cpm,143 cpm,96 cpm,70 cpm,117 cpm,486 cpm,
"C=C[C@@]1(C)CC(=O)[C@]2(O)[C@@]3(C)[C@@H](O)CCC(C)(C)[C@@H]3[C@H](O)[C@H](OC(C)=O)[C@@]2(C)O1 [forskolin, Forskolin]",,,,,,,,,,,,,,,,,,,,Total cellular cAMP levels [2]: over 170 pmol/10^6 cells
"CCCCCCCCCCCCOS(=O)(=O)[O-].[Na+] [SDS, sodium dodecyl sulphate]",,,,,,,640 cpm,394 cpm,118 cpm,1149 cpm,,,,,,,,,,"[125I]cAMP bound to SPA beads, counts per minute ([1]; 1% lysis reagent, 0.2 pmol cAMP/well, sulphate): 1052 cpm and 1128 cpm; [125I]cAMP bound to SPA beads, counts per minute ([1]; 1% lysis reagent, 0.4 pmol cAMP/well, sulphate): 973 cpm and 1052 cpm; [125I]cAMP bound to SPA beads, counts per minute ([1]; 1% lysis reagent, 0.8 pmol cAMP/well, sulphate): 913 cpm and 973 cpm; [125I]cAMP bound to SPA beads, counts per minute ([1]; 1% lysis reagent, 1.6 pmol cAMP/well, sulphate): 859 cpm and 913 cpm; [125I]cAMP bound to SPA beads, counts per minute ([1]; 1% lysis reagent, 3.2 pmol cAMP/well, sulphate): 837 cpm and 859 cpm"
